Consider 45 molecules from patent publication US8846746B2, “Pyrazole compound and pharmaceutical use thereof” (Japan Tobacco Inc., priority 2011, dated 2014).

The target of one test is human SGLT1 (Homo sapiens (Human), UniProt P13866). In words: SGLT1 inhibitory activity: 14C-AMG uptake into CHO-K1 cell line stably expressing human SGLT1. Conditions: 14C-AMG uptake, CHO-K1 cells stably expressing human SGLT1. In kind it is cell-based. In a few lines: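 CHO-K1 cells stably expressing human SGLT1 were pre-incubated 20 min in Na(−) buffer (pH 7.4). Test compound in Na(+) buffer with BSA was added with ¹⁴C-AMG (8 kBq) plus unlabelled AMG (2 mM in the added solution) for 1 h at 37 °C.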
Chain of human SGLT1 (P13866 whole entry): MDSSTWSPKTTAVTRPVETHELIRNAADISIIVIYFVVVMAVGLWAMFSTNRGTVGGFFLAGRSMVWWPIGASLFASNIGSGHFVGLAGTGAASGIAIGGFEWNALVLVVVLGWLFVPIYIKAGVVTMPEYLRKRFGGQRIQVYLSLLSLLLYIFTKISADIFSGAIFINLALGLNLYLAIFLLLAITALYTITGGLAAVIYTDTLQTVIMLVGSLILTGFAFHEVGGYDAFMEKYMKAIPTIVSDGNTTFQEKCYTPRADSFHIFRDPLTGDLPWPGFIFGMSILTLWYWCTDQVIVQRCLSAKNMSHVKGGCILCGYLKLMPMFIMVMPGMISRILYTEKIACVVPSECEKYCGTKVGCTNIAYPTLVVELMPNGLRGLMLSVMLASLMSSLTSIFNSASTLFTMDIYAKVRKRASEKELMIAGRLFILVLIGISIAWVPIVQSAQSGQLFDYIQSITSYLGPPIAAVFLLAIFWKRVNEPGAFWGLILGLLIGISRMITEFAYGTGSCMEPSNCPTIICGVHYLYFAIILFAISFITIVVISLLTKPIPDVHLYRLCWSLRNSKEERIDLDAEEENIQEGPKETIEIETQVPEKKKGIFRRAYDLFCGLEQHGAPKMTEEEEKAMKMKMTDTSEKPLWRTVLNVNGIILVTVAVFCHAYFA
In the case of `CCCc1cccc(-c2cc(NC(=O)[C@@H]3CNC(=O)C3)nn2-c2cccc(OC(C)(C)C)c2)c1` [Example 435], the IC50 (usually the concentration at which inhibition is half-maximal) was determined as 3.45 nM.
For `O=C1C[C@H](C(=O)Nc2cc(-c3cccc(OC(F)(F)F)c3)n(-c3cccc(OCc4ccccc4)c3)n2)CN1` [Example 436], the IC50 was 19 nM.
In the case of `C[C@@H](OCc1cccc(-c2cc(NC(=O)[C@@H]3CNC(=O)C3)nn2-c2cccc(OCc3ccccc3)c2)c1)C(F)(F)F` [Example 438], half-maximal inhibition (IC50) was put at 3.1 nM.
Still for that read-out and setting: the figure for `C[C@@H](OCc1cccc(-c2cc(NC(=O)[C@@H]3CNC(=O)C3)nn2-c2cccc(O)c2)c1)C(F)(F)F` [Example 441] is 9 nM; for `COc1cccc(-n2nc(NC(=O)[C@@H]3CNC(=O)C3)cc2-c2cccc(OC(F)(F)F)c2)c1` [Example 442] it is 15 nM; for `CCOc1cccc(-n2nc(NC(=O)[C@@H]3CNC(=O)C3)cc2-c2cccc(OC(F)(F)F)c2)c1` [Example 443] it is 11 nM.
Same read-out and setting: the figure for `CCCOc1cccc(-n2nc(NC(=O)[C@@H]3CNC(=O)C3)cc2-c2cccc(OC(F)(F)F)c2)c1` [Example 444] is 10 nM; for `CC(C)Oc1cccc(-n2nc(NC(=O)[C@@H]3CNC(=O)C3)cc2-c2cccc(OC(F)(F)F)c2)c1` [Example 445] it is 6.7 nM.
On the same count and under the same terms, then `COc1cccc(-n2nc(NC(=O)[C@@H]3CNC(=O)C3)cc2-c2cccc(COCC(F)(F)F)c2)c1` [Example 446], with 5.6 nM; and `CCOc1cccc(-n2nc(NC(=O)[C@@H]3CNC(=O)C3)cc2-c2cccc(COCC(F)(F)F)c2)c1` [Example 447], with 4.7 nM; and `CCCOc1cccc(-n2nc(NC(=O)[C@@H]3CNC(=O)C3)cc2-c2cccc(COCC(F)(F)F)c2)c1` [Example 448], with 4.3 nM.
Take `CC(C)Oc1cccc(-n2nc(NC(=O)[C@@H]3CNC(=O)C3)cc2-c2cccc(COCC(F)(F)F)c2)c1` [Example 449]: 2.3 nM corresponded to half-maximal inhibition (IC50).
Same read-out and setting: the figure for `COCCOc1cccc(-n2nc(NC(=O)[C@@H]3CNC(=O)C3)cc2-c2cccc(COCC(F)(F)F)c2)c1` [Example 450] is 8.1 nM; for `COc1cccc(-n2nc(NC(=O)[C@@H]3CNC(=O)C3)cc2-c2cccc(CO[C@H](C)C(F)(F)F)c2)c1` [Example 451] it is 3.3 nM; for `CCOc1cccc(-n2nc(NC(=O)[C@@H]3CNC(=O)C3)cc2-c2cccc(CO[C@H](C)C(F)(F)F)c2)c1` [Example 452] it is 1.7 nM.
Still for that read-out and setting: the figure for `CCCOc1cccc(-n2nc(NC(=O)[C@@H]3CNC(=O)C3)cc2-c2cccc(CO[C@H](C)C(F)(F)F)c2)c1` [Example 453] is 1.7 nM; for `CC(C)Oc1cccc(-n2nc(NC(=O)[C@@H]3CNC(=O)C3)cc2-c2cccc(CO[C@H](C)C(F)(F)F)c2)c1` [Example 454] it is 2 nM.
On the same count and under the same terms, then `COCCOc1cccc(-n2nc(NC(=O)[C@@H]3CNC(=O)C3)cc2-c2cccc(CO[C@H](C)C(F)(F)F)c2)c1` [Example 455], with 3.1 nM; and `COCCOc1cc(-n2nc(NC(=O)[C@@H]3CNC(=O)C3)cc2-c2cccc(CO[C@H](C)C(F)(F)F)c2)ccc1F` [Example 456], with 3.4 nM; and `COc1cc(-n2nc(NC(=O)[C@@H]3CNC(=O)C3)cc2-c2cccc(CO[C@H](C)C(F)(F)F)c2)ccc1F` [Example 457], with 3.7 nM.
`CCCc1cccc(-c2cc(NC(=O)[C@@H]3CNC(=O)C3)nn2-c2cccc(COC(C)C)c2)c1` [Example 459]: the IC50 turned out to be 4.8 nM.
The molecule `CCOc1ccc(F)c(-n2nc(NC(=O)[C@@H]3CNC(=O)C3)cc2-c2cccc(COCC(F)(F)F)c2)c1` [Example 460] gave a half-maximal inhibitory concentration (IC50) of 2.1 nM.
On the same count and under the same terms, the figure for `CC(C)Oc1ccc(F)c(-n2nc(NC(=O)[C@@H]3CNC(=O)C3)cc2-c2cccc(COCC(F)(F)F)c2)c1` [Example 461] is 1.4 nM; for `COCCOc1ccc(F)c(-n2nc(NC(=O)[C@@H]3CNC(=O)C3)cc2-c2cccc(COCC(F)(F)F)c2)c1` [Example 462] it is 3.4 nM; for `CCOc1ccc(F)c(-n2nc(NC(=O)[C@@H]3CNC(=O)C3)cc2-c2cccc(CO[C@H](C)C(F)(F)F)c2)c1` [Example 463] it is 1.1 nM.
`CC(C)Oc1ccc(F)c(-n2nc(NC(=O)[C@@H]3CNC(=O)C3)cc2-c2cccc(CO[C@H](C)C(F)(F)F)c2)c1` [Example 464] had a 50% inhibitory concentration (IC50) of 1.4 nM.
On the same count and under the same terms, then `COCCOc1ccc(F)c(-n2nc(NC(=O)[C@@H]3CNC(=O)C3)cc2-c2cccc(CO[C@H](C)C(F)(F)F)c2)c1` [Example 465], with 1.7 nM.
As to `O=C1C[C@H](C(=O)Nc2cc(-c3cccc(OC(F)(F)F)c3)n(-c3ccccc3F)n2)CN1` [Example 466], the half-inhibitory concentration (IC50) amounted to 16 nM.
The same measure, in the same setting: then `O=C1C[C@H](C(=O)Nc2cc(-c3cccc(OC(F)(F)F)c3)n(-c3cccc(F)c3)n2)CN1` [Example 467], with 26 nM.
The same measure, in the same setting: then `O=C1C[C@H](C(=O)Nc2cc(-c3cccc(COCC(F)(F)F)c3)n(-c3cccc(F)c3)n2)CN1` [Example 468], with 17 nM; and `C[C@@H](OCc1cccc(-c2cc(NC(=O)[C@@H]3CNC(=O)C3)nn2-c2cccc(F)c2)c1)C(F)(F)F` [Example 469], with 5.2 nM; and `CCC(C)(C)C(=O)c1cccc(-c2cc(NC(=O)[C@@H]3CNC(=O)C3)nn2-c2ccccc2)c1` [Example 470], with 7 nM.
Same read-out and setting: then `O=C1C[C@H](C(=O)Nc2cc(-c3cccc(COCC(F)(F)F)c3)n(-c3ccccc3F)n2)CN1` [Example 471], with 15 nM; and `C[C@@H](OCc1cccc(-c2cc(NC(=O)[C@@H]3CNC(=O)C3)nn2-c2ccccc2F)c1)C(F)(F)F` [Example 472], with 4.7 nM; and `O=C1C[C@H](C(=O)Nc2cc(-c3cccc(OC(F)(F)F)c3)n(-c3ccccc3Cl)n2)CN1` [Example 473], with 7.5 nM.
In turn, `O=C1C[C@H](C(=O)Nc2cc(-c3cccc(COCC(F)(F)F)c3)n(-c3ccccc3Cl)n2)CN1` [Example 474] had an IC50 of 7.3 nM.
Same read-out and setting: then `C[C@@H](OCc1cccc(-c2cc(NC(=O)[C@@H]3CNC(=O)C3)nn2-c2ccccc2Cl)c1)C(F)(F)F` [Example 475], with 3.1 nM; and `COc1cccc(-n2nc(NC(=O)[C@@H]3CNC(=O)C3)cc2-c2cccc(OC(F)(F)F)c2)c1F` [Example 476], with 21 nM; and `CCOc1cccc(-n2nc(NC(=O)[C@@H]3CNC(=O)C3)cc2-c2cccc(OC(F)(F)F)c2)c1F` [Example 477], with 25 nM.

Still in this test, the particulars now being: CHO-K1, at 0.1 uM.
Consider `CCCNC(=O)c1cccc(-c2cc(NC(=O)[C@@H]3CNC(=O)C3)nn2-c2ccccc2)c1` [Example 429], for which testing at 0.1 µM gave an inhibition of 40%.
Same read-out and setting: the figure for `CCCN(C)C(=O)c1cccc(-c2cc(NC(=O)[C@@H]3CNC(=O)C3)nn2-c2ccccc2)c1` [Example 430] is 8%; for `CC(C)NC(=O)c1cccc(-c2cc(NC(=O)[C@@H]3CNC(=O)C3)nn2-c2ccccc2)c1` [Example 431] it is 21%; for `CC(C)N(C)C(=O)c1cccc(-c2cc(NC(=O)[C@@H]3CNC(=O)C3)nn2-c2ccccc2)c1` [Example 432] it is 14%.
Same read-out and setting: the figure for `O=C1C[C@H](C(=O)Nc2cc(-c3cccc(C(=O)NCC(F)(F)F)c3)n(-c3ccccc3)n2)CN1` [Example 433] is 8%.
On to `O=C1C[C@H](C(=O)Nc2cc(-c3cccc(OC(F)(F)F)c3)n(-c3cccc(O)c3)n2)CN1` [Example 439], for which the inhibition (in general, the drop in the measured response relative to a control, in per cent) at 0.1 µM stood at 45%.
